We go through eleven molecules from patent EP0399814A2, “Phenol derivatives for promoting human nerve growth factor” (Sankyo Company Limited, priority 1989, dated 1990).

The test system of this assay is L-M cells. The assay can be described thus: NGF production and secretion by L-M cells (Furukawa method), NGF level in medium determined by enzyme immunoassay. The class given is cell-based, mouse. Conditions: L-M cells cultured 24 hours, NGF amount relative to cells not treated with test compound; for % Control / activity at 10 µg/mL: compounds of the invention at 10 γ/ml; for activity at 10 µg/mL / activity at 20 µg/mL: Mus musculus, read-out: % Control; for activity at 20 µg/mL: known compounds at 20 γ/ml. From the text: Furukawa et al. reported that L-M cells of a fibroblast cell line from mouse connective tissue can produce and secrete a relatively large amount of NGF, and that catecholamines accelerate such production and secretion of NGF (J. Biol. Chem., 261, 6039-6047, 1986). Following the test method described in this Furukawa paper, but using the compounds of the invention and recognized NGF promoters epinephrine, isoproterenol, L-DOPA, and caffeic acid, NGF production and secretion activities were examined. The test compounds of this invention were employed at 10 γ/ml, and the known compounds were employed at 20 γ/ml.
Culture medium 199 containing 0.5% peptone was used for culturing L-M cells (for the culture medium 199, see, for instance, Morgan et al., Proc. Soc. Exp. Biol. Med., 73, 1 (1950) or Morgan et al. J. Natl. Cancer Inst., 16, 557 (1955). About 5 x 10⁴ of L-M cells were placed in each well of a culture plate with 24 wells, and cultured using a CO₂ incubator (37°C, 5% CO₂) until confluence. After removing the culture medium, the cultured cells were washed once with 199 culture medium containing 0.5% bovine serum albumin (Fraction V, Sigma). The test compounds were added to a specified concentration to a 199 culture medium containing 0.5% bovine serum albumin, and treated with 0.5 ml of L-M cells. After culturing the L-M cells in a CO₂ incubator for 24 hours, the medium was recovered and the NGF level was determined.
NGF was determined using an enzyme immunoassay (Korshing and Thoenen, Proc. Natl. Acad. Sci. USA, 80, 3513-3516, 1983). A solution (each 75 µl) of anti-mouse β-NGF antibody (0.3 µg/ml, pH 9.6; Boehringer Mannheim) was pipetted into each well of a polystyrene plate with 96 wells. After allowing the plate to stand at room temperature for an hour, the antibody was removed by washing three times with detergent solution. A solution (50 µl) of standard β-NGF (Wako Pure Chemical Industries Ltd.) or the recovered medium (50 µl) for each of the test compounds was pipetted into each well. After allowing the plate to stand at room temperature for 6 - 8 hours, the standard β-NGF or test solution was removed and each well was washed three times. A solution (50 µl) of β-NGF monoclonal antibody (100 mU/ml, pH 7.0; Boehringer Mannheim) labelled with β-galactosidase was pipetted into each well. After allowing the plate to stand at 4°C for 15 - 18 hours, enzyme labelled antibody was removed and the wells washed three times followed by pipetting a solution (100 µl) of chlorophenol red-β-D-galactopyranoside (1 mg/ml, pH 7.3; Boehringer Mannheim) into each well. Colour was allowed to develop (2 - 3 hours at room temperature), and the absorbance was determined at 570 nm. The amount of NGF was calculated from a standard curve. The results are expressed as a relative value (%) which is relative to the amount of NGF produced and secreted by cells treated not with the test compounds. The numerical values (% control) are expressed by the mean value in the 3 wells of the control (without addition of the test compounds).

`CC(=O)Oc1ccc(CCC(=O)Nc2cc(Cl)ccc2Cl)cc1OC(C)=O` [Example 1, N-(2,5-dichlorophenyl)-3,4-diacetoxyphenylpropionamide]: the “% Control” value is on record as 201%.

In the case of `CC(=O)Oc1ccc(CCCC(=O)NC23CC4CC(CC(C4)C2)C3)cc1OC(C)=O` [Example 46, N-(1-adamantyl)-3,4-diacetoxyphenylbutyrylamide], the “% Control” value was 939%.

With `CC(=O)Oc1cc2c(cc1OC(C)=O)CC(C(=O)Nc1ccc(Cl)cc1Cl)CC2` (centres unmarked) [Example 91, N-(2,4-dichlorophenyl)-6,7-diacetoxy-1,2,3,4-tetrahydro-2-naphthamide], the activity at 10 µg/mL worked out at 575%.

`CC(=O)Oc1cc2c(cc1OC(C)=O)CC(C(=O)NC13CC4CC(CC(C4)C1)C3)CC2` (centres unmarked) [Example 93, N-(1-adamantyl)-6,7-diacetoxy-1,2,3,4-tetrahydro-2-naphthamide]: the activity at 10 µg/mL stood at 941%.

With `CC(=O)Oc1cc2c(cc1OC(C)=O)CCC(C(=O)Nc1ccc(Cl)cc1Cl)=C2` [Example 94, N-(2,4-dichlorophenyl)-6,7-diacetoxy-3,4-dihydro-2-naphthamide], the activity at 10 µg/mL amounted to 459%.

On to `CC(=O)Oc1cc2c(cc1OC(C)=O)CCC(C(=O)Nc1cnc3ccccc3c1)=C2` [Example 95, N-(3-quinolyl)-6,7-diacetoxy-3,4-dihydro-2-naphthamide], for which the activity at 10 µg/mL came to 341%.

As to `CC(=O)Oc1cc2c(cc1OC(C)=O)CCC(C(=O)NC13CC4CC(CC(C4)C1)C3)=C2` [Example 96, N-(1-adamantyl)-6,7-diacetoxy-3,4-dihydro-2-naphthamide], the activity at 10 µg/mL was found to be 558%.

As to `N[C@@H](Cc1ccc(O)c(O)c1)C(=O)O` [L-DOPA, reference compound], the activity at 20 µg/mL was found to be 117 ± 7%.

Consider `O=C(O)/C=C/c1ccc(O)c(O)c1` [caffeic Acid, caffeic acid, reference compound], for which the activity at 20 µg/mL was 123 ± 14%.

Consider `CNC[C@H](O)c1ccc(O)c(O)c1` [epinephrine, reference compound], for which the activity at 20 µg/mL is 140 ± 24%.

Turning to `CC(C)NCC(O)c1ccc(O)c(O)c1` (centres unmarked) [isoproterenol, reference compound], the activity at 20 µg/mL was 168 ± 22%.
